Data set [1] is described as follows: Stability under high humidity conditions (water content by Karl-Fischer method). The format is physicochemical. The note with it: for Final moisture content - After 48 hours at 25° C. at humidity of 60%: humidity 60%; for Final moisture content - After 48 hours at 25° C. at humidity of 60% / Final moisture content - After 48 hours at 40° C. at humidity of 75% / Initial moisture content (%): Karl-Fischer; for Final moisture content - After 48 hours at 40° C. at humidity of 75%: humidity 75%; for Initial moisture content (%): before storage; for Hygroscopicity (conclusion in words): conclusion from Table 1.

Data set [2] can be described thus: Solubility by the shake flask method. The note with it: for Solubility (mg/ml): Medium: Water.
Description: General conditions: Room temperature (25° C.), stirring speed: 200 RPM, Analytical method: UV
Data set [3] in a line: Flow properties, angle of repose. The format is physicochemical.
The test system of data set [4] is K562 cell line, chronic myelogenous leukemia (CML). Briefly: Activity in cell culture, K562 cell proliferation. The format is cell-based. The note with it: for IC50: K562, 0.312×10^5 cells/ml, 72 Hrs, 10 μM to 0.156 μM; for Potency in inhibiting cell proliferation compared with Imatinib: K562.
Data set [5] has as its system T315I cell line, chronic myelogenous leukemia (CML) mutant. Briefly: Activity in cell culture, T315I cell proliferation. The format is cell-based. The note with it: for IC50: 0.625×10^5 cells/ml, 10 μM to 0.156 μM.
The test system of a further data set is Mice. Put plainly: Maximum tolerated dose (MTD) for 14 days. The format is in vivo. To be noted: for MTD (mg/kg, po): Mice, 14 days. The text has this:
Maximum Tolerated Dose—Non-Toxic Nature

Data set [6] in a line: Bioavailability study in mice. The format is in vivo.
The mark [7] stands for this setting: 0.1N HCl, 25 °C, simulated gastric fluid, thermodynamic from solid.

The text below walks through data of patent publication US8735415B2, “Acid addition salts of (3,5-Bis trifluoromethyl)-N-[4-methyl-3-(4-pyridin-3yl-pyrimidin-2ylamino)-phenyl]-benzamide” (Natco Pharma Limited, priority 2004, dated 2014).

One may read the solubility as the dissolved amount per volume that the medium holds. In general, IC50 refers to the concentration that inhibits the measured activity by half. Low readings indicate greater potency in that assay, high ones weaker potency in that assay. The term AUC denotes concentration integrated over time. Higher therefore signals more exposure. By Cmax is commonly meant the highest concentration seen after dosing. A word on the Tmax: it is the time at which the peak concentration occurs.

Values after ≈ are worked out from the molar mass of the structure shown.

For `Cc1ccc(NC(=O)c2cc(C(F)(F)F)cc(C(F)(F)F)c2)cc1Nc1nccc(-c2cccnc2)n1.Cl` [(3,5-Bis trifluoromethyl)-N-[4-methyl-3-(4-pyridin-3-yl-pyrimidin-2-ylamino)-phenyl]-benzamide hydrochloride], in data set [1], the “Final moisture content - After 48 hours at 25° C. at humidity of 60%” value (“Final moisture content … of 60%” for short) was 0.7%, the “Final moisture content - After 48 hours at 40° C. at humidity of 75%” value (from here on “Final moisture content … of 75%”) stood at 0.7%, the “Initial moisture content (%)” value is listed as 0.6% and the “Hygroscopicity (conclusion in words)” value is reported as “non-hygroscopic”. The “solubility” value in data set [2] (Medium: 0.1N HCl, 25° C., 200 RPM, UV) amounted to 13.4 µg/mL. Further, the “Solubility (mg/ml)” value in data set [2] (25° C., 200 RPM, UV) is “Almost no”.

As for `CS(=O)(=O)O.Cc1ccc(NC(=O)c2cc(C(F)(F)F)cc(C(F)(F)F)c2)cc1Nc1nccc(-c2cccnc2)n1` [(3,5-Bis trifluoromethyl)-N-[4-methyl-3-(4-pyridin-3-yl-pyrimidin-2-ylamino)-phenyl]-benzamide methane sulfonate], in data set [1], the “Final moisture content … of 60%” value came to 0.7%, the “Final moisture content … of 75%” value came to 0.7%, the “Initial moisture content (%)” value worked out at 0.6% and the “Hygroscopicity (conclusion in words)” value is listed as “non-hygroscopic”.

Take `Cc1ccc(NC(=O)c2cc(C(F)(F)F)cc(C(F)(F)F)c2)cc1Nc1nccc(-c2cccnc2)n1` [AN-019, (3,5-Bistrifluoromethyl)-N-[4-methyl-3-(4-pyridin-3-yl-pyrimidin-2-ylamino)-phenyl]-benzamide]: the “Angle of Repose (degrees °)” value in data set [3] is 41.57 degrees °. The concentration for half-maximal inhibition (IC50) in data set [4] (Homo sapiens, K562, 72 h) was found to be 206 nM; in data set [5] (72 h) it was 99.3 nM. Besides, the “Potency in inhibiting cell proliferation compared with Imatinib” value in data set [4] and in data set [5] was “more potent than Imatinib” throughout. Moreover, the “MTD (mg/kg, po)” value in the data set on Mice is listed as 500.0 mg/kg, po. The “AUC” value in data set [6] turned out to be 611.46 ng·h/mL. Also, the highest level in data set [6] (mouse, in vivo) (Cmax) was 93.7 ng/mL. The time of peak concentration (Tmax) in data set [6] (mouse, in vivo) turned out to be 6 h. Besides, the solubility in data set [2] (setting [7]) is 1.3 µg/mL (≈ 2.51 µM). The “Solubility (mg/ml)” value in data set [2] (25° C., 200 RPM, UV) is recorded as “Almost no”.

Consider `Cc1ccc(NC(=O)c2cc(C(F)(F)F)cc(C(F)(F)F)c2)cc1Nc1nccc(-c2cccnc2)n1.Cc1ccc(S(=O)(=O)O)cc1` [AN-019T, (3,5-Bis trifluoromethyl)-N-[4-methyl-3-(4-pyridin-3-yl-pyrimidin-2-ylamino)-phenyl]-benzamide 4-toluene sulfonate monohydrate], for which the “Angle of Repose (degrees °)” value in data set [3] came out at 30.74 degrees °. Also, in data set [3] (conclusion from Table 4), the “Flow properties compared with the base” value was “a lower angle of repose and better flow properties when compared with corresponding base”. Moreover, the “Potency in inhibiting cell proliferation compared with Imatinib” value in data set [4] is “more potent than Imatinib”. Besides, the midpoint of inhibition in data set [4] (monohydrate), the IC50, lay at 265 nM. Also, the “Potency in inhibiting cell proliferation compared with Imatinib” value in data set [5] is recorded as “more potent than Imatinib”. Also, in data set [5] (72 Hrs, monohydrate), the concentration for half-maximal inhibition (IC50) was 109 nM. For the same molecule, the “MTD (mg/kg, po)” value in the data set with Mice is recorded as 1000.0 mg/kg, po. Moreover, the “Toxicity compared with the base” value with Mice (conclusion from Table 3, mice) is on record as “substantially less toxic than the corresponding base”. Further, in data set [1], the “Final moisture content … of 60%” value is listed as 2.7%, the “Final moisture content … of 75%” value stood at 2.8%, the “Initial moisture content (%)” value is 2.7% and the “Hygroscopicity (conclusion in words)” value is “non-hygroscopic”. In data set [2] (setting [7]), this molecule showed a solubility of 40.2 µg/mL. Moreover, in data set [2] (conclusion from Table 2), the “Solubility compared with the other salts” value was “improved solubility properties among other salts investigated”. The molecule further gave a solubility in data set [2] (water, 25 °C, thermodynamic from solid) of 7.8 µg/mL.
